From patent US8980917B2, “Methods for treating or preventing brain infections” (The Johns Hopkins University, priority 2008, dated 2015)
“Also recorded” adds a separate entry of the source.

Assays:
E. coli K1 strain RS218 [1] = assay: Mouse model of experimental hematogenous E. coli meningitis (cPLA2α-/- and wild type BALB/c mice); type: in vivo; conditions: i.v. 1.2 μg/mouse in 50 μl PBS 30 mins before bacterial injection
Procedure: cPLA2α−/− and wild type mice, either male or female, […] that had been backcrossed on the BALB/c strain for >10 generations were used^14. All procedures and handling techniques were approved by The Johns Hopkins Animal Care and Use Committee.
Each mouse received 1×10^7 CFU of E. coli K1 strain RS218 in 100 μl PBS via the tail vein. One hour later, mouse chest was cut open, and blood from right ventricle was collected and plated for bacteria counts, which were expressed as CFUs/ml of blood. The mouse was then perfused with a mammalian Ringer's solution by transcardiac perfusion through a 23-gauge needle inserted into the left ventricle of the heart under the perfusion pressure of about 100 mmHg. The perfusate exited through a cut in the right atrium. […] The brains were removed, weighed and homogenized in 2 ml RPMI followed by plating for bacterial counts, which were expressed as CFUs/gm. Since E. coli K1 penetration into the brain is shown to depend on the magnitude of bacteremia^5,7, bacterial penetration into the brain was also expressed as [(brain CFUs per gm)/(blood CFUs per ml)]×100. Kidneys and spleens were also removed, homogenized and plated for determination of bacterial counts, which were expressed as CFUs/gm. […]

blood-brain barrier = assay: Blood-brain barrier permeability by Evans blue dye extravasation into the brain; type: in vivo, mouse; conditions: cPLA2α-/- mice
C. neoformans = assay: Mouse model of C. neoformans meningitis/meningoencephalitis following intravenous inoculation; type: in vivo; conditions: strain B-3501A; cPLA2α-/- mice; i.v. 1.2 μg/mouse 30 mins before C. neoformans injection; 24 hours
Procedure: The mouse model of Cryptococcal meningitis/meningoencephalitis following intravenous inoculation was used to determine the hematogenous dissemination of C. neoformans to the brain as described previously (7, 8). C. neoformans strains grown on 1% yeast extracts, 2% peptone and 2% dextrose (YPD) agar were suspended in phosphate-buffered saline (PBS, pH 7.4) and counted with a hemocytometer to determine the yeast cell number. This suspension was also cultured on YPD agar plates, and colonies (CFUs) counted after 3 days of incubation at 30° C. as previously described (11). The inoculum size was confirmed by CFUs.
Briefly, female BALB/c mice received 10^5 yeast cells via the tail vein. 24 hours later, the blood specimens were obtained for determination of CFUs, and the animals perfused with sterile Ringer's solution until the perfused solution became colorless. The brains were removed, weighed, homogenized and cultured on YPD agar for determination of CFUs.
cPLA2α. We examined the role of host cPLA2α in C. neoforman strain B-3501A penetration into the brain by studying cPLA2α−/− mice as compared to their strain-matched wild type mice. Each animal received 10^5 yeast cells via the tail vein. 24 hours later, the blood specimens were obtained for determination of CFUs, and the animals perfused with sterile Ringer's solution until the perfused solution became colorless. […]

E. coli K1 strain RS218 [2] = assay: Infant rat model of experimental hematogenous E. coli meningitis; type: in vivo; conditions: 5-day-old rats, 9 animals; i.p. 50 μg/10 gm one hour before bacteria; p < 0.001 by Fisher's exact test
Procedure: Experimental hematogenous E. coli meningitis was induced in 5-day old rats as previously described (9, 10, 14, 28). Briefly, outbred, specific-pathogen-free pregnant Sprague-Dawley rats with timed conception were purchased from Charles River Breeding laboratory (Wilmington, Mass.). The rats delivered in our vivarium 5 to 7 days after arrival. At 5 days of age, all members of each litter were randomly divided into two groups, to receive intraperitoneally montelukast (50 μg/10 gm of weight in 50 μl PBS) or vehicle control (3.3% DMSO in 50 μl PBS). One hour later, each animal received 1×10^7 CFU of E. coli K1 strain RS218 via intracardiac injection. At one hour after bacterial injection, blood and CSF specimens were obtained as described previously (9, 10, 14, 28) for quantitative cultures. The development of E. coli meningitis (defined as positive CSF cultures) was compared between the two groups of animals.
We also examined one of the CysLT1 antagonists for its effect on E. coli K1 penetration into the brain in our well-characterized infant rat model of experimental hematogenous E. coli meningitis (9, 10, 14, 28). At 5 days of age, all members of each litter were randomly divided to receive intraperitoneally montelukast or vehicle control. […] At one hour after bacterial inoculation, blood and cerebrospinal fluid (CSF) specimens were obtained for quantitative cultures.

HBMEC monolayers = assay: Integrity of HBMEC monolayers by TEER before and after transcytosis assays; type: cell-based, human; conditions: at 50 μM
Text: We also examined the effect of C. neoformans traversal on the HBMEC monolayer integrity, as measured by passive diffusion of ^3H-inulin and TEER at the end of the transcytosis experiment as described previously (7).

[3] = developed for asthma; cited from earlier work

Structure (SMILES)	E. coli K1 penetration into the brain (brain CFU/gm and percent of brain CFU/blood CFU) (E. coli K1 strain RS218 [1])	blood-brain barrier permeability (Evans blue extravasation into the brain) (blood-brain barrier; 1.2 μg i.v. 30 min before E. coli RS218 injection)	blood-brain barrier permeability (Evans blue extravasation into the brain) (blood-brain barrier; 1.2 μg/mouse i.v. 30 mins before C. neoformans injection)	C. neoformans penetration into the brain (CFU/gm) (C. neoformans)	% of animals with meningitis (positive CSF cultures) (E. coli K1 strain RS218 [2])	No. of animals with meningitis (positive CSF cultures) (E. coli K1 strain RS218 [2])	integrity of the HBMEC monolayers (TEER) (HBMEC monolayers)	safety and tolerability in clinical trials [3]
CCCCC/C=C\C/C=C\C/C=C\C/C=C\CCCC(=O)O [arachidonic acid, Arachidonic acid]	significantly enhanced E. coli K1 penetration into the brain to the level observed in the wild type mice	no significantly increased extravasation of intravenously administered Evans blue dye into the brain; also recorded: did not affect the blood-brain barrier permeability	not accompanied by any change in the blood-brain barrier permeability	significantly enhanced C. neoformans penetration into the brain to the level observed in the wild type mice				
CC(C)(O)c1ccccc1CC[C@@H](SCC1(CC(=O)O)CC1)c1cccc(/C=C/c2ccc3ccc(Cl)cc3n2)c1 [montelukast]					22%	2	did not affect the integrity of the HBMEC monolayers	safe and well tolerated
